Structures are written as SMILES.

`CCOC(=O)c1[nH]c(C)c(C(C)C)c1C` displayed a melting point of 105 to 108 °C.

`COc1ccc(OCC(O)COc2cccc3oc(C(=O)O)cc(=O)c23)cc1` (configuration not stated) registered a melting point of 125 to 126 °C.

`Cc1ccc(-c2nc(C)c(-c3ccnc(Nc4ccc(N5CCOCC5)cc4)n3)s2)c(C)c1` had a melting point of 191 to 192 °C.

The compound `CC(/C=C/C(Br)=C(/C)c1ccc2c(c1)C(C)(C)CCC2(C)C)=C\C(=O)O` displayed a melting point of 189 to 190 °C.

Compound `CCCc1c(OCCCc2ccc(O)c(O)c2)ccc(C(=O)O)c1O` yielded a melting point of 194 to 195 °C.

`CC1=Nc2c3cc(-c4ccccc4)nc-3ccn2C1`: the melting point is 222 °C.

The compound `N#CCc1ccc([N+](=O)[O-])c(OCc2ccccc2)c1` returned a melting point of 73 to 85 °C.

In turn, `N#CCN1CCN(c2cccccc2=O)CC1` gave a melting point of 133 to 135 °C.

`NNc1ccc([N+](=O)[O-])cc1F`: the melting point fell in the range of 119 to 121 °C.

The compound `N#CCC1(c2ccc(Cl)cc2)CCC1` showed a melting point of 63 to 65 °C.

For `CC(C)c1[nH]n(-c2c(Cl)cc(Cl)cc2Cl)c2nc(C(O)c3ccccc3)nc(=O)c1-2` (configuration not stated), the melting point is 246 to 248 °C.

Regarding `C=C(C(=C)c1cc(C)sc1C)c1cc(C)sc1C`, the melting point is 43 to 44 °C.

`COc1ccnc(CCc2nc3cc(-c4ccc(S(=O)(=O)N5CCC6(CC5)OCCO6)cc4)cnc3[nH]2)c1` had a melting point of 121 to 122 °C.

`CNCc1ccc2cc(O)ccc2c1`: the melting point lay in the range of 168 to 169 °C.

For the compound `OC1CN(Cc2ccccc2)C1`, the melting point lay within 64.5 to 65.5 °C.

`Cc1ccnc(Nc2nc(-c3ccc(OC(F)(F)F)cc3)cs2)c1` registered a melting point of 275 to 282 °C.

As for `CCSc1ccc(Oc2ccc(Cl)c(Cl)c2)nc1C#N`, the melting point lay in the range of 64 to 66 °C.

`c1ccc2c(Cn3c(-c4ccc5c(c4)OCO5)nc4ccccc43)cccc2c1` returned a melting point of 166 to 168 °C.

Compound `CC(C)(C)OC(=O)NC1CCN(CC(=O)O)C1=O` (configuration not stated) displayed a melting point of 62 to 64 °C.

Compound `CCCCCCCCCCCCc1c[nH]c(C(=O)OC)c1` showed a melting point of 68 to 69 °C.

Regarding `CN(Cc1ccc(NC(=O)C2=Cc3cc(-c4ccc(OC5CCOCC5)cc4)ccc3S(=O)(=O)CC2)cc1)C1CCOCC1`, the melting point is 227 to 229 °C.

Consider `COc1cccc(-c2cc(F)cc3c2OC(CN)C3)c1OC` (configuration not stated), for which the melting point is 166 to 167 °C.

Take `CCOc1ccc2nc3[nH]cnc(=O)c3cc2c1OC`: the melting point was in the range of 330 to 331 °C.

In turn, `COc1cc(COc2nn(-c3ccccc3)cc2C=O)ccc1OCc1nc(-c2cccc(C#N)c2)oc1C` gave a melting point of 161 to 162 °C.

With `O=C(N[C@@H]1CN2C(=O)N(c3cc(Cl)nc(Cl)c3)C(=O)[C@@]2(Cc2ccc(OC(F)(F)F)cc2)C1)c1ccncc1`, the melting point is 148 °C.

On to `CCC(O)(c1ccc(OCCCN2CCN(C)CC2)cc1)c1cccc(C(F)(F)F)c1` (configuration not stated), for which the melting point lay within 129 to 130 °C.

Turning to `COc1ccc(OC)c2c(O)c(C#N)cnc12`, the melting point was 300 to 305 °C.

As to `O=C(c1ccccc1)c1sc2cc(O)ccc2c1-c1ccccc1`, the melting point was in the range of 187 to 190 °C.

As to `COc1cccc(-c2ccccc2C(=O)Nc2ccc(Cl)cc2)c1`, the melting point lay in the range of 123 to 124 °C.

Consider `CCCOC(=O)c1c(C)nsc1NC(=O)NC`, for which the melting point stood at 191 °C.

Regarding `COc1ncc([N+](=O)[O-])cc1C`, the melting point was 95 to 96.5 °C.

`C[C@@H](Nc1ncnc2[nH]c(-c3ccc(C#N)cc3)cc12)c1ccccc1` showed a melting point of 333 to 336 °C.

`COCOc1ccc2cc(Br)ccc2c1` came in with a melting point of 46.8 to 49.2 °C.

For `NS(=O)(=O)c1ccccc1CCl`, the melting point was 156 to 158 °C.

The compound `CC(NC(=O)CCCl)c1ccc(Cl)cc1` (configuration not stated) came in with a melting point of 86 to 91 °C.

Compound `Cc1ccc(S(=O)(=O)OCCc2ccc3[nH]cc(S(=O)(=O)c4ccccc4)c3c2)cc1` came in with a melting point of 60 to 63 °C.

`CC1Cc2cc(N)ccc2C1=O` (configuration not stated) showed a melting point of 151 to 152 °C.

`Cc1c(CCO)c2cc(OCc3csc(-c4ccccc4)n3)ccc2n1Cc1ccccc1`: the melting point fell in the range of 114 to 116 °C.

`Cc1cc(=O)n2nc(C)n(N)c2n1` came in with a melting point of 287 to 289 °C.

For `COC(=O)C1=NC2=COc3cc(C)c(Cl)cc3N2C1C(=O)O` (configuration not stated), the melting point was 240 to 244 °C.

`O=C(O)Cc1ccc(-n2cc(Br)cn2)cc1` showed a melting point of 187 °C.

`O=C1NCCN1c1ccc(C(F)(F)F)cc1` registered a melting point of 169 to 171 °C.

Turning to `CCOC(=O)c1oc2cccc(OCC(C)O)c2c1C` (configuration not stated), the melting point was in the range of 94 to 96 °C.

`Cc1c(NC(=O)c2cccnc2NCc2ccc(=O)[nH]c2)cccc1C(F)(F)F` displayed a melting point of 196 to 201 °C.

As for `CCOCc1cc(COc2cc(CCC(=O)O)n(-c3ccccc3)n2)cc(Oc2ncc(C(F)(F)F)cc2Cl)c1`, the melting point lay in the range of 124 to 128 °C.

As for `O=C(O)CN1C(=O)C(=Cc2cccc(Cl)c2)SC1=S`, the melting point is 227 to 229 °C.

In turn, `CC(C)(C)c1cc(CC(C)(C)C2SCCS2)cc(C(C)(C)C)c1O` registered a melting point of 119 °C.

`O=c1c(Br)c(Br)cnn1-c1cccc(C(F)(F)F)c1` registered a melting point of 158 to 175 °C.

With `Cn1ccc2ccccc2c(=NO)c1=O`, the melting point lay in the range of 225 to 226 °C.

Compound `OCc1cn2c(n1)CN=C(c1ccccc1Cl)c1cc(Cl)ccc1-2` showed a melting point of 174 to 175 °C.

The compound `Cc1c(SCCN2CCc3ccccc3C2)ccnc1CSc1nc2ncccc2[nH]1` had a melting point of 180 °C.

`COC(=O)C1CSC(c2cc3ccccc3[nH]2)=N1` (configuration not stated) had a melting point of 141 to 142 °C.

In the case of `COc1ccc(CSC(=S)N2Cc3[nH]c4ccccc4c3CC2C(=O)O)cc1` (configuration not stated), the melting point lay in the range of 195 to 196 °C.

In turn, `O=Cc1ccccc1Oc1ccc(F)cc1[N+](=O)[O-]` yielded a melting point of 94 to 95 °C.

In the case of `S=C(Cc1ccc(Oc2ccc(I)cc2)cc1)N1CCOCC1`, the melting point lay within 123 to 127 °C.

For the compound `COC(=O)C1CC1c1ccc(OCc2cccc(Oc3ccccc3)c2)cc1` (configuration not stated), the melting point is 55 to 56 °C.

Take `CCOC(=O)c1cnn(-c2cc(Cl)cc(Cl)c2)c1SC`: the melting point fell in the range of 70 to 72 °C.

Compound `CN(C)c1ccc(NC(=O)N(C[C@H]2CC[C@@H](CN(C(=O)Nc3ccc(N(C)C)cc3)C3CCCCCCC3)CC2)C2CCCCCCC2)cc1` registered a melting point of 197 to 200 °C.

As for `COC(=O)c1ncccc1N`, the melting point lay in the range of 139 to 146 °C.

`CC1(C)Oc2ccc(C#N)cc2[C@@H](N2CCSC2=NC#N)[C@@H]1O` came in with a melting point of 272 to 274 °C.

In the case of `COc1ccc(C(=O)Oc2c(C)c(C)c3oc(C)c(-c4ccc(C(C)C)cc4)c3c2C)cc1`, the melting point fell in the range of 113 to 115 °C.

The compound `COC(c1ccc(C)cc1)c1ccccc1Br` (configuration not stated) came in with a melting point of 98 to 99 °C.

As for `CN(CCc1nc(-c2cc(C(C)(C)C)c(O)c(C(C)(C)C)c2)cs1)C(=O)OC(C)(C)C`, the melting point worked out at 204 °C.

Compound `CCOC(=O)C1=C(C)NC(C)=C(C(=O)OCC)C1c1ccccc1C=CC(=O)OC` gave a melting point of 138 to 140 °C.

Consider `CS(=O)(=O)Nc1cc2occc(=O)c2cc1Oc1ccccc1NC=O`, for which the melting point was 203 to 204 °C.

Regarding `CC1(C)CC(=O)c2c(SCc3ccccc3)c[nH]c2C1`, the melting point fell in the range of 220 to 223 °C.

Compound `CCCCNC(=S)Nc1ccc(NNC=O)cc1` registered a melting point of 129 to 131 °C.

The compound `Cc1c(NC(=O)CC(C)(C)C)c(C)c2c(c1-c1cccc(N3CCCC3)c1)OCC2c1ccc(C(C)C)cc1` (configuration not stated) came in with a melting point of 206 to 207 °C.

In turn, `CS(=O)(=O)N1CCN2C(=O)N(c3cc(Cl)cc(Cl)c3)C(=O)C2(Cc2ccc(Br)cc2)C1` (configuration not stated) gave a melting point of 229 °C.

In the case of `CCn1c(=O)c2ccccc2n2cnc(-c3nc(COC)no3)c12`, the melting point came to 176 °C.

Consider `CC(=O)N(C)c1cccc(-c2ccnc3c(Cl)cnn23)c1`, for which the melting point was 163 to 165 °C.

`CC(C)CC1(CCCCCl)C(=O)Nc2ccccc21` (configuration not stated): the melting point lay within 124 to 125 °C.

As for `COc1cc(O)c2c(c1)[C@H]1CN(C)CC[C@@H]1CC2=O` (relative stereo), the melting point was above 250 °C.

For the compound `CCOC(=O)c1conc1-c1ccc(Cl)c(F)c1`, the melting point was 77 to 78 °C.

With `CCOC(=O)Oc1c(OC)cc(C=CC(=O)Nc2cnc3c(C)cc(C)cc3c2-c2ccccc2Cl)cc1OC`, the melting point was in the range of 228 to 229 °C.

`C[C@H](CO)Nc1nc(SCc2cccc(F)c2F)nc2[nH]c(=O)cnc12` came in with a melting point of 215 to 217 °C.

`CCOC(=O)C1=C(N)NC2=C(C(=O)CCC2)C1c1cccc(C)n1` (configuration not stated) returned a melting point above 260 °C.

`O=C(O)C1Oc2ccc3ccccc3c2C=C1C(F)(F)F` (configuration not stated): the melting point fell in the range of 245 to 250 °C.

With `CN1CCN(c2ccc(S(=O)(=O)c3ccc(F)cc3)c(N)c2)CC1`, the melting point was in the range of 85 to 89 °C.

The compound `CCOC1CN(Cc2ccc(OC)cc2)Cc2cc(OC)c(OCc3ccccc3)cc21` (configuration not stated) registered a melting point of 84 to 85 °C.

For `NC1C(=O)Nc2ccccc2SC1Cc1ccccc1` (configuration not stated), the melting point was in the range of 223 to 224 °C.

As for `CCN(CC)C(=O)c1c(C(=O)c2cc3cnccc3n2S(=O)(=O)c2ccccc2)ccnc1OC`, the melting point was found to be 150 °C.

`CC(=O)Oc1ccccc1-c1ccc(C(C)=O)cc1`: the melting point was 116 to 117 °C.

Regarding `C=Cc1c(N)nc(-c2ccc(C)cc2)nc1C(=O)OC`, the melting point was in the range of 122 to 123 °C.

Regarding `CC1=C(C)C(=O)C(C(CCCCCC(=O)NCC(=O)O)c2ccccc2)=C(C)C1=O` (configuration not stated), the melting point lay within 162 to 164 °C.

In turn, `COc1nc(SCC(N)c2ncco2)cnc1NS(=O)(=O)c1cccc(Cl)c1Cl` (configuration not stated) gave a melting point of 168 to 170 °C.

For `Cc1cccnc1NC(=O)Nc1cccc2c1C1CC(=O)CCN1C2=O` (configuration not stated), the melting point was above 260 °C.

For the compound `CC1(Cc2ccccc2)Cc2cc(O)c(Cl)c(Cl)c2C1=O` (configuration not stated), the melting point lay in the range of 219 to 221 °C.

As to `CCOC(CSc1ccc2c(c1)CCN2C(C)=O)OCC`, the melting point was below 52 °C.

`CC(CF)(CF)n1cc(C(=O)O)c(=O)c2cc(F)c(N3C[C@@H]4NCCO[C@@H]4C3)cc21` came in with a melting point above 250 °C.

`CCOC(=O)c1c(C)cc2cnc(C)nc2c1C` returned a melting point of 84 to 86 °C.

The compound `Nc1ncnc2c1c(-c1ccccc1)cn2-c1cccc(OCCCl)c1` yielded a melting point of 166 to 168 °C.

The term melting point denotes the temperature of the solid-liquid transition.

For the origin of these results see a melting point compilation (Tetko et al.; mined from patent text by program, amines drawn as free bases though some values may be those of a salt).
